Earlier results on one compound are cited in patent US20250101519A1, “USE OF HYPOXIA-INDUCIBLE FACTOR 1 ALPHA AS MARKER IN DEPRESSION RECURRENCE DIAGNOSIS” (NINGBO UNIVERSITY, priority 2022, published 2025).

For data set [1] the following is noted: in humans.
The conditions of data set [2]: in mice; other references report various values.

Regarding `CNCCC(Oc1ccc(C(F)(F)F)cc1)c1ccccc1` (centres unmarked) [fluoxetine], the metabolic clearance half-life in data set [1] is 96 to 140 h. Also, in data set [2], the clearance half-life is 9 h.
